Assay results as given in patent publication US11234982B2, “Methods for treating ocular surface pain” (NOVARTIS AG, priority 2019, dated 2022).

System: cornea
Assay: Esthesiometry assessment (Part 3): corneal sensitivity, anesthetic effect
Assay type: in vivo, human
Settings: for Anesthetic effect on the cornea (esthesiometry): single eye drop: tetracaine 0.5%, diclofenac 0.1%, compound I 2.5%
Description: Part 3 was an esthesiometry assessment to evaluate the anesthetic properties of compound I. Part 3 of the study had four arms, with compound I, vehicle, tetracaine (0.5% ophthalmic solution, used as a positive control) and diclofenac sodium (0.1% ophthalmic solution, used as the active NSAID comparator). Ocular anesthetic was selected because of its established anesthetic effect; however it is not the standard of care due to its negative effect on wound healing. NSAID is the current standard of care for corneal pain after PRK with minimal anesthetic but significant pain control properties. Vehicle eye drops were used as a negative control to enable better determination of the potential anesthetic effect. Twelve healthy subjects, who met the eligibility criteria, were randomized to receive a single eye drop of 4 study treatments, each during 1 of 4 different study days (Days 1, 4, 7 and 10). Each subject was randomized to receive the study treatment according to one of the following four sequences: • Sequence 1: Anesthetic, NSAID, compound I 2.5%, Vehicle • Sequence 2: NSAID, Vehicle, Anesthetic, compound I 2.5% • Sequence 3: Vehicle, compound I 2.5%, NSAID, Anesthetic • Sequence 4: compound I 2.5%, Anesthetic, Vehicle, NSAID
Inclusion Criteria: • Written informed consent was obtained before any assessment was performed. • Healthy male and female subjects aged 18 to 50 years (inclusive), and in good health as determined by past medical history, physical examination, vital signs, ECG, and laboratory tests at Screening. • At Screening, and Baseline, vital signs (systolic and diastolic blood pressure (BP) and pulse rate) were assessed in the sitting position after the subject had rested for at least 3 minutes and again after 3 minutes in the standing position. […] BMI=Body weight (kg)/[Height (m)]^2 • Subjects who were able to communicate well with the Investigator, to understand and comply with the requirements of the study. • For Part 3, subjects Baseline levels of eye sensitivity were to be in the range of 50 to 60 mm (inclusive) as measured by the Cochet-Bonnet esthesiometer.
The first-in-human study further evaluated potential anesthetic effect of topical ocular 2.5% compound I by esthesiometry testing, i.e. measurement of the filament length (cm) when the threshold of cornea touch is perceived.

| SMILES | Anesthetic effect on the cornea (esthesiometry) | Corneal sensitivity, least squares means, Test vs Ref: vs Diclofenac 0.1% (Tetracaine 0.5% (N=12) vs Diclofenac 0.1% (N=12) at 2.5, 10 and 20 minutes post-dose) | Corneal sensitivity, least squares means, Test vs Ref: vs Vehicle (Tetracaine 0.5% (N=12) vs Vehicle (N=12) at 2.5, 10 and 20 minutes post-dose) |
| --- | --- | --- | --- |
| O=C(O)Cc1ccccc1Nc1c(Cl)cccc1Cl [diclofenac, diclofenac sodium, reference compound] | no anesthetic effect | – | – |
| CCCCNc1ccc(C(=O)OCCN(C)C)cc1 [tetracaine, reference compound] | had an anesthetic effect | statistical and clinical significance were observed | statistical and clinical significance were observed |
